Data taken from patent US5302610A, “Renal-selective biphenylmethyl imidazole angiotensin II antagonists for treatment of hypertension” (G. D. Searle & Co., priority 1991, dated 1994).

Assays:
AII receptor [1] = experiment: Assay C: In Vivo Intravenous Pressor Assay Response for AII Antagonists; set-up: species or system male Sprague-Dawley rats, ganglion-blocked
Method: (§1) The in vivo AII receptor antagonist activity of Example #5 compound was examined in ganglion-blocked male Sprague-Dawley rats (Harlan Sprague-Dawley, Inc.), weighing 300-400 g, anesthetized with 100 mg/kg i.p. Inactin. Catheters (PE-50) were implanted in a femoral artery and vein to measure mean arterial pressure and to administer compounds, respectively. A tracheal catheter maintained airway patency. For intravenous experiments, autonomic neurotransmission was blocked by treatment with mecamylamine (3 mg/kg i.v.) and atropine (400 μg/kg i.v.). AII (30 ng/kg i.v., 20-25 μl volume) was administered four times at 10 minute intervals to establish a reproducible control pressor response. Example #5 compound was then administered at 1, 3 and 10 mg/kg in separate groups of rats as an intravenous bolus (0.2 ml volume) before rechallenging with AII (30 ng/kg, 20-25 μl volume) for the following 2 hours. For intraduodenal experiments, rats were anesthetized as above, but ganglion blockade was not performed. AII was administered at 100 ng/kg i.v. (20-25 μl volume), and was administered at 10, 30 and 100 mg/kg in separate groups of rats as an intraduodenal bolus (0.2 ml volume). Angiotensin II injections were then given 5, 10, 20, 30, 45, 60, 75, 90, and 120 minutes after administration of the test compound and response of arterial pressure was monitored. The response to AII was calculated as percent of the control response and then the percent inhibition was calculated as 100 minus the percent control response. Duration of action of a test compound was defined as the time from peak percent inhibition to 50% of peak. The test compound was tested in two rats and the values for the two rats were averaged.

AII receptor [2] = experiment: Assay C: In Vivo Intraduodenal Pressor Assay Response for AII Antagonists; set-up: species or system male Sprague-Dawley rats
Method: as §1, with “Angiotensin II injections were then given 5, 10, 20, 30, 45, 60, 75, 90, and 120 minutes after administration of the test compound and response of arterial pressure was monitored.” left out

[3] = target: smooth muscle angiotensin II receptor; experiment: Assay A: Angiotensin II Binding Activity; conditions: rat uterine membranes, 25° C., 60 min; read-out: Assay A IC50 (50% displacement of specifically bound 125I-AII)
Method: Other chemicals were obtained from Sigma Chemical Co. This assay was carried out according to the method of Douglas et al [Endocrinology, 106, 120-124 (1980)]. Rat uterine membranes were prepared from fresh tissue. All procedures were carried out at 4° C. Uteri were stripped of fat and homogenized in phosphate-buffered saline at pH 7.4 containing 5 mM EDTA. The homogenate was centrifuged at 1500×g for 20 min., and the supernatant was recentrifuged at 100,000×g for 60 min. The pellet was resuspended in buffer consisting of 2 mM EDTA and 50 mM Tris-HCl (pH 7.5) to a final protein concentration of 4 mg/ml. […] The reaction was initiated by the addition of membrane protein and the mixture was incubated at 25° C. for 60 min. The incubation was terminated with ice-cold 50 mM Tris-HCl (pH 7.5) and the mixture was filtered to separate membrane-bound labelled peptide from the free ligand. The incubation tube and filter were washed with ice-cold buffer. Filters were assayed for radioactivity in a Micromedic gamma counter. Nonspecific binding was defined as binding in the presence of 10 μM of unlabelled AII. Specific binding was calculated as total binding minus nonspecific binding. […] Binding data were analyzed by a nonlinear least-squares curve fitting program.

**Q.** Which results are given for `CCCCc1nc(Cl)c(CO)n1Cc1ccc(-c2ccccc2C(=O)O)cc1` [Example 5]?
**A.** % Control of AII Pressor Response (AII receptor [1]; 1 mg/kg i.v., 1 min): 80%; % Control of AII Pressor Response (AII receptor [1]; 1 mg/kg i.v., 5 min): 85%; % Control of AII Pressor Response (AII receptor [1]; 1 mg/kg i.v., 10 min): 92%; % Control of AII Pressor Response (AII receptor [1]; 1 mg/kg i.v., 20 min): 90%; % Control of AII Pressor Response (AII receptor [1]; 1 mg/kg i.v., 30 min): 88%; % Control of AII Pressor Response (AII receptor [1]; 1 mg/kg i.v., 40 min): 86%; % Control of AII Pressor Response (AII receptor [1]; 1 mg/kg i.v., 50 min): 86%; % Control of AII Pressor Response (AII receptor [1]; 1 mg/kg i.v., 60 min): 89%; % Control of AII Pressor Response (AII receptor [1]; 1 mg/kg i.v., 75 min): 93%; % Control of AII Pressor Response (AII receptor [1]; 1 mg/kg i.v., 90 min): 95%; % Control of AII Pressor Response (AII receptor [1]; 1 mg/kg i.v., 120 min): 100%; % Control of AII Pressor Response (AII receptor [1]; 3 mg/kg i.v., 1 min): 39%; % Control of AII Pressor Response (AII receptor [1]; 3 mg/kg i.v., 5 min): 55%; % Control of AII Pressor Response (AII receptor [1]; 3 mg/kg i.v., 10 min): 63%; % Control of AII Pressor Response (AII receptor [1]; 3 mg/kg i.v., 20 min): 68%; % Control of AII Pressor Response (AII receptor [1]; 3 mg/kg i.v., 30 min): 74%; % Control of AII Pressor Response (AII receptor [1]; 3 mg/kg i.v., 40 min): 75%; % Control of AII Pressor Response (AII receptor [1]; 3 mg/kg i.v., 50 min): 75%; % Control of AII Pressor Response (AII receptor [1]; 3 mg/kg i.v., 60 min): 81%; % Control of AII Pressor Response (AII receptor [1]; 3 mg/kg i.v., 75 min): 88%; % Control of AII Pressor Response (AII receptor [1]; 3 mg/kg i.v., 90 min): 92%; % Control of AII Pressor Response (AII receptor [1]; 3 mg/kg i.v., 120 min): 98%; % Control of AII Pressor Response (AII receptor [1]; 10 mg/kg i.v., 1 min): 4%; % Control of AII Pressor Response (AII receptor [1]; 10 mg/kg i.v., 5 min): 16%; % Control of AII Pressor Response (AII receptor [1]; 10 mg/kg i.v., 10 min): 23%; % Control of AII Pressor Response (AII receptor [1]; 10 mg/kg i.v., 20 min): 31%; % Control of AII Pressor Response (AII receptor [1]; 10 mg/kg i.v., 30 min): 40%; % Control of AII Pressor Response (AII receptor [1]; 10 mg/kg i.v., 40 min): 47%; % Control of AII Pressor Response (AII receptor [1]; 10 mg/kg i.v., 50 min): 51%; % Control of AII Pressor Response (AII receptor [1]; 10 mg/kg i.v., 60 min): 60%; % Control of AII Pressor Response (AII receptor [1]; 10 mg/kg i.v., 75 min): 71%; % Control of AII Pressor Response (AII receptor [1]; 10 mg/kg i.v., 90 min): 80%; % Control of AII Pressor Response (AII receptor [1]; 10 mg/kg i.v., 120 min): 96%; % Control of AII Pressor Response (AII receptor [2]; 10 mg/kg intraduodenal, 1 min): 100%; % Control of AII Pressor Response (AII receptor [2]; 10 mg/kg intraduodenal, 5 min): 94%; % Control of AII Pressor Response (AII receptor [2]; 10 mg/kg intraduodenal, 10 min): 99%; % Control of AII Pressor Response (AII receptor [2]; 10 mg/kg intraduodenal, 20 min): 85%; % Control of AII Pressor Response (AII receptor [2]; 10 mg/kg intraduodenal, 30 min): 91%; % Control of AII Pressor Response (AII receptor [2]; 10 mg/kg intraduodenal, 40 min): 91%; % Control of AII Pressor Response (AII receptor [2]; 10 mg/kg intraduodenal, 50 min): 95%; % Control of AII Pressor Response (AII receptor [2]; 10 mg/kg intraduodenal, 60 min): 93%; % Control of AII Pressor Response (AII receptor [2]; 10 mg/kg intraduodenal, 75 min): 95%; % Control of AII Pressor Response (AII receptor [2]; 30 mg/kg intraduodenal, 1 min): 48%; % Control of AII Pressor Response (AII receptor [2]; 30 mg/kg intraduodenal, 5 min): 48%; % Control of AII Pressor Response (AII receptor [2]; 30 mg/kg intraduodenal, 10 min): 44%; % Control of AII Pressor Response (AII receptor [2]; 30 mg/kg intraduodenal, 20 min): 28%; % Control of AII Pressor Response (AII receptor [2]; 30 mg/kg intraduodenal, 30 min): 34%; % Control of AII Pressor Response (AII receptor [2]; 30 mg/kg intraduodenal, 40 min): 42%; % Control of AII Pressor Response (AII receptor [2]; 30 mg/kg intraduodenal, 50 min): 41%; % Control of AII Pressor Response (AII receptor [2]; 30 mg/kg intraduodenal, 60 min): 53%; % Control of AII Pressor Response (AII receptor [2]; 30 mg/kg intraduodenal, 75 min): 74%; % Control of AII Pressor Response (AII receptor [2]; 100 mg/kg intraduodenal, 1 min): 28%; % Control of AII Pressor Response (AII receptor [2]; 100 mg/kg intraduodenal, 5 min): 19%; % Control of AII Pressor Response (AII receptor [2]; 100 mg/kg intraduodenal, 10 min): 15%; % Control of AII Pressor Response (AII receptor [2]; 100 mg/kg intraduodenal, 20 min): 14%; % Control of AII Pressor Response (AII receptor [2]; 100 mg/kg intraduodenal, 30 min): 9%; % Control of AII Pressor Response (AII receptor [2]; 100 mg/kg intraduodenal, 40 min): 5%; % Control of AII Pressor Response (AII receptor [2]; 100 mg/kg intraduodenal, 50 min): 13%; % Control of AII Pressor Response (AII receptor [2]; 100 mg/kg intraduodenal, 60 min): 10%; % Control of AII Pressor Response (AII receptor [2]; 100 mg/kg intraduodenal, 75 min): 13%; IC50 [3]: 216 ± 45 nM
